Legend:
[1] = test system: SB.mhdgc-1; experiment: AC50 for growth inhibition (viability) (log10 M); higher = less potent; conditions: SB.mhdgc-1 (hereditary c.1380delA CDH1 gastric cancer)
Summary of the method: (§1)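 Gastric cancer cells from hereditary or sporadic patients, 500 per 1536 well, were exposed to compound for 48 h over 11 threefold dilutions from a final 46 μM. CellTiter-Glo luminescence, read on a ViewLux, measured viability, which was normalised to DMSO. The log half-maximal activity concentration came from four-parameter fits, and only high-quality curve classes were kept.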

[2] = test system: SB.msgc-1; experiment: as above; conditions: SB.msgc-1 (sporadic gastric cancer)
Summary of the method: as §1

Compound | AC50 for growth inhibition (log10 M) [1] | AC50 for growth inhibition (log10 M) [2]
CC(=O)C\1=C(/C)C2=CN=C(NC3=CC=C(C=N3)N4CCNCC4)N=C2N(C5CCCC5)C1=O | -4.93 | -4.73
CC(=O)NCC(=O)N1[C@@H]2CC[C@H]1c1ccc(Nc3ncc(C(F)(F)F)c(NC4CCC4)n3)cc12 | -5.48 | -5.33
CC(C)(C(=O)NCC(F)(F)C(F)(F)F)C(=O)N[C@@H]1C(=O)Nc2ccccc2-c2ccccc21 | -4.83 | -5.23
CC(C)(C)Cn1c(N)nc2ccc(-c3[nH]c(C(C)(C)C)nc3-c3ccc(F)cc3)nc21 | -4.53 | -4.73
CC(C)(O)Cn1c(NC(=O)c2ccc(-c3cn[nH]c3)s2)nc2cc(CN3CCOCC3)ccc21 | -5.83 | -5.63
CC(C)c1cc(C(=O)N2Cc3ccc(CN4CCN(C)CC4)cc3C2)c(O)cc1O | -6.53 | -6.78
CC(=O)Nc1ccc([C@H](C)C(=O)Nc2ncc(C(C)C)s2)cc1 | -7.13 | -5.88
CC1(C)OC/2=C(\[C@H](NCC3=CC=CC=C3)[C@@H]1O)C(=O)C4=CC=CC=C4C2=O | -5.43 | -5.58
Cc1c(C(=O)Nc2cccc(C(F)(F)F)c2)cc(-c2ccccc2)n1CCCN1CCOCC1 | -4.78 | -4.83
Cc1cccc2c1CC[C@H](CN1CCC(c3c(Cl)cccc3Cl)CC1)C[C@@H]2O | -4.73 | -4.78
Cc1cccc(Nc2nc(N[C@@H]3CCCC[C@@H]3N)ncc2C(N)=O)c1 | -4.73 | -4.63
Cc1ccc([S+](=O)([O-])Nc2cc(Cl)ccc2C(=O)Nc2nc(-c3ccccc3)cs2)cc1 | -4.68 | -5.28
Cc1cn2c(-c3cn[nH]c3)cnc2c(Nc2ccc(C(=O)N3CCNCC3)cc2F)n1 | -4.98 | -4.83
Cc1c(Cn2c(C)nc3c(C(=O)O)cc(N4CCOCC4)cc32)cccc1C(F)(F)F | -7.48 | -5.88
Cc1n[nH]c2ccc(-c3cncc(OC[C@@H](N)Cc4ccccc4)c3)cc12 | -6.43 | -5.43
CCc1cc(Nc2nccc(-c3c(-c4ccc(OC)c(C(=O)Nc5c(F)cccc5F)c4)nc4ccccn34)n2)c(OC)cc1N1CCC(N2CCN([S+](C)(=O)[O-])CC2)CC1 | -7.33 | -5.63
CCN(CC)CCCCNc1nc2cc(Cl)c(Cl)cc2nc1-c1ccc(-c2cccs2)s1 | -5.03 | -4.68
CCNC(=O)Nc1ccc2ncc(Nc3ccc(C)cc3)nc2n1 | -7.43 | -6.43
CCn1cc(-c2ccnc3[nH]c(-c4cccc(CN(C)C)c4)cc23)c(-c2ccc(NC(=O)N(C)C)cc2)n1 | -5.38 | -4.73
CN(C)C(=O)[C@H](O)[C@H](Cc1ccccc1)NC(=O)c1cc2cc(Cl)ccc2[nH]1 | -5.23 | -5.13
CN(C)CC(=O)N1CCC(CC1)C2=CC=C(NC(=O)C3=NC(=C[NH]3)C#N)C(=C2)\C4=C\CCCC4 | -6.28 | -5.23
CN(C)Cc1cccc(N/C(=C2\C(=O)Nc3cc(C(=O)N(C)C)ccc32)c2ccccc2)c1 | -5.48 | -5.23
Cc1nc(Nc2n[nH]c3c2CN(C(=O)N[C@H](CN(C)C)c2ccccc2)C3(C)C)c2sccc2n1 | -5.98 | -6.53
CN(C1CCc2c(c3ccccc3n2CC(=O)O)C1)[S+](=O)([O-])c1ccc(F)cc1 (stereo not drawn) | -5.03 | -4.73
Cc1nn(Cc2ccccc2Cl)c(C)c1CN(C)CC(O)COc1ccc(Cl)cc1 (stereo not drawn) | -4.78 | -4.73

Compound | AC50 for growth inhibition (log10 M) [1] | AC50 for growth inhibition (log10 M) [2]
CN1CCC(CC1)COC2=CN=C(N=C2)C3=CC(=CC=C3)CN4/N=C(\C=C/C4=O)C5=CC(=CC=C5)C#N | -7.48 | -6.78
Cc1cc(CN2CCN(c3c(Br)cnc4[nH]c(-c5ccc(N6CCN(C)CC6)cc5)nc34)CC2)no1 | -4.63 | -4.68
Cc1cnc(Nc2ccc(N3CCN(C)CC3)cc2)nc1Nc1cccc([S+](=O)([O-])NC(C)(C)C)c1 | -5.33 | -4.98
Cc1cc(Nc2cc(N3CCN(C)CC3)nc(/C=C/c3ccccc3)n2)n[nH]1 | -4.32 | -4.27
COc1ccccc1[C@H](c1cccc2ccccc12)[C@@](C)(C#N)C(=O)N1CCC(c2cccc(C(F)(F)F)c2)CC1 | -5.18 | -5.48
COc1cc2ncnc(-n3nc(-c4ccccn4)nc3N)c2cc1OC | -5.03 | -4.78
COc1cc2nc(-c3ccc(N4CCN(C)CC4)cc3)nc(NCCN3CCOCC3)c2cc1OC | -5.28 | -6.78
COc1cc(OC)c(/C=C/[S+](=O)([O-])Cc2ccc(OC)c(NCC(=O)[O][Na])c2)c(OC)c1 | -6.03 | -6.33
COc1cc(Oc2ccnc3cc(OC)c(OC)cc23)ccc1NC(=O)NC(C)c1nccs1 (stereo not drawn) | -4.73 | -4.78
COC1=CC=C(C=N1)C/2=C/C3=C(C)N=C(N)N=C3N(C4CCC(CC4)OCCO)C2=O (stereo not drawn) | -7.88 | -7.18
CSC1=CC(=CC=C1)NC2=NC3=C(C=N2)/C=C(C(=O)N3C)/C4=C(Cl)C=CC=C4Cl | -5.78 | -5.93
Cn1cc(-c2cnn3c(N)c(Br)c([C@H]4CCCNC4)nc23)cn1 | -5.88 | -6.83
C[N]1C=C(C=N1)C2=C3\C=N/NC(=O)C4=C3C(=CC(=C4)NC(=O)[C@H](N)C5CCCCC5)[NH]2 | -6.08 | -5.63
C[S+](=O)([O-])N1CCc2c(-c3cnc(N)nc3)nc(N3CCOCC3)nc21 | -5.68 | -6.43
N#C/C(=C1/Nc2ccccc2S1)c1ccnc(OCc2ccc(CN3CCOCC3)cc2)n1 | -7.43 | -5.98
NC/1=N/[C@]2(COC[C@H]2CS1)C3=CC(=CC=C3F)NC(=O)C4=NC=C(F)C=C4 | -5.93 | -5.48
NC1(Cc2ccc(Cl)cc2)CCN(c2ncnc3[nH]ccc23)CC1 | -4.83 | -4.78
NC1=C(Cl)C(=CC=N1)OC2=C(F)C=C(NC(=O)\C3=C\N\C=C(C3=O)\C4=CC=C(F)C=C4)C=C2 | -6.43 | -4.73
Nc1ccc(C(=O)Nc2cccc(-c3nc(N4CCOCC4)c4oc5ncccc5c4n3)c2)cn1 | -5.38 | -5.18
N#Cc1ccc(COC[C@H]2O[C@@H](n3c(NCc4ccc(Cl)c(Cl)c4)nc4c(N)ncnc43)[C@H](O)[C@@H]2O)cc1 | -4.93 | -5.08
NCC(=O)Nc1ccc(-n2nc(C(F)(F)F)cc2-c2ccc3c(ccc4ccccc43)c2)cc1 | -4.68 | -4.63
O=C1\C=C(/OC2=C1C=CC=C2C3=CC=CC=C3)N4CCOCC4 | -5.18 | -4.73
OC[C@H]1O[C@H]([C@@H](F)[C@@H]1O)N2\C=C/C(=O)NC2=O | -5.08 | -5.13
O=C(Nc1ncc(SCCN2CCCC2)s1)[C@]1(c2ccc([S+](=O)([O-])C3CC3)cc2)C[C@H]1C1CCCCC1 | -5.03 | -4.78
